How the values were obtained:
[1] = HPLC analysis after 5-day incubation in PBS or RPMI medium without cells; type: physicochemical; details: 1 μM in PBS, 37° C., 5 days
Protocol: The total run time was 45 minutes.
(Panels (A) and (D) of FIG. 8B).

MM.1S cells = test: alamarBlue cell viability assay, MM.1S cells; type: cell-based, human
Protocol: (§1) Briefly, H929, U266-CD38^−, MM.1S, and Daudi cells were seeded at 5,000 cells/well in 96-well plates and co-cultured with fresh medium containing different test articles with the indicated concentrations at 37° C. for 5 hours, 1 day, 3 days, or 5 days. The viabilities of the cells were determined by alamarBlue™ cell viability reagent. About 10 μl alamarBlue™ cell viability reagent was added to the cells with a final concentration of 10% v/v, followed by incubating at 37° C. for 1.5 hours. The fluorescence was measured on a microplate reader in arbitrary fluorescent units following excitation at 560 nm and emission at 590 nm.
(§2) H929 cells were incubated for 5 hours, 1 day, 3 days, or 5 days (FIGS. 12A-12D), and MM.1S, U266-CD38-, and Daudi cells were incubated for 5 days (FIGS. 12E-12G). Then, cell viability was determined.

U266-CD38- cells = test: alamarBlue cell viability assay, U266-CD38- cells; type: cell-based; details: 5 days, FIG. 12F
Protocol: as §1, §2

H929 cells = test: alamarBlue cell viability assay, H929 cells; type: cell-based, human
Protocol: as §1, §2

H929 tumors [2] = test: H929 xenograft tumor model (tumors 150±20 mm^3); type: in vivo, NOD-SCID mice; details: 28 days
Protocol: (§3) To generate subcutaneous tumors, 2×10^7 H929 cells in PBS were mixed with 50% (v/v) extracellular matrix gel and injected subcutaneously into the flanks of NOD-SCID mice. Tumor size and body weight were recorded every 2-3 days. Volumes of subcutaneously xenografted tumors in vivo were determined using an external caliper, where tumor volume was calculated by the modified ellipsoid formula, ½×(length×width×width). […] At the end of experiments, tumors were collected and weighed. Statistical analysis was performed with Student t test and statistical differences between groups were analyzed by one-way ANOVA with Bonferroni's multiple comparison post-tests.

H929 tumors [3] = test: H929 xenograft tumor model, pilot study (tumors 115±15 mm^3); details: single dose 20 nmol/kg i.p. 7 days post-transplantation, measured for 21 days
Protocol: as §3
The tumors from all mice were excised and weighed on day 21 post drug administration.

Compound	HPLC peaks after long-term incubation (hydrolysis) [1]	cell killing (MM.1S cells; at doses >10 μM)	killing effect (U266-CD38- cells)	cell killing (H929 cells; at doses >10 μM)	tumor growth compared to PBS (H929 tumors [2]; daily i.p. injections)	effect of cell death (MM.1S cells; even at doses >20 μM)	change of tumor sizes compared to PBS (H929 tumors [3])	effect of cell death (H929 cells; even at doses >20 μM)	tumor growth compared to PBS (H929 tumors [2]; single dose 20 nmol/kg on day 14 after transplantation)
Nc1cccc2c1CN(C1CCC(=O)NC1=O)C2=O (stereo not shown) [lenalidomide]	two additional peaks (p2 and p1) respectively corresponding to its two hydrolyzed forms	only weak killing	some killing effect at high concentrations	only weak killing	inhibited tumor growth	–	–	–	–
daratumumab	–	–	did not possess any killing effect	–	–	no effect of cell death	could only slow down tumor growth	no effect of cell death	inhibited tumor growth
